Test results taken from ChEMBL document CHEMBL1201862, “PubChem BioAssay data set” (2004).
Active and inactive are the calls of the source.

Legend:
Phospholipase A2 = Phospholipase A2 (Homo sapiens, UniProt P04054); experiment: phospholipase A2 activity inhibition – biochemical, set 2, counter-screen for ATG4B inhibitor project, dose response (AID 588586); assay type: functional
Cysteine protease ATG4B = Cysteine protease ATG4B (Homo sapiens, UniProt Q9Y4P1); experiment: autophagin-1 cysteine protease inhibition – biochemical, fluorescence, set 2, dose response (AID 588584); assay type: functional
Chain of Cysteine protease ATG4B (Q9Y4P1 whole entry): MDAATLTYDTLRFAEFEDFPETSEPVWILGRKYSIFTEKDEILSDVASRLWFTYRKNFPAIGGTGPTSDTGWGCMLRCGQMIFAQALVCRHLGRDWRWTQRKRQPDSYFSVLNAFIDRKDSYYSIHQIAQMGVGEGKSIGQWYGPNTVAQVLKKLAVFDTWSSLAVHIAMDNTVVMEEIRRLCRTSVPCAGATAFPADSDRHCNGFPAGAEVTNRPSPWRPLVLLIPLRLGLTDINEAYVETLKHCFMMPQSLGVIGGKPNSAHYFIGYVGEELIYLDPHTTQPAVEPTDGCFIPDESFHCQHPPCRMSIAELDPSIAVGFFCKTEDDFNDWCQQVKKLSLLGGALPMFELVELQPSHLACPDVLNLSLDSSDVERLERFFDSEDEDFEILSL

[1] = target: T1, Mannose-6-phosphate isomerase (Homo sapiens, UniProt P34949); experiment: phosphomannose isomerase inhibition – biochemical, fluorescence intensity, confirmation (AID 1535)
T1 sequence (P34949 whole entry): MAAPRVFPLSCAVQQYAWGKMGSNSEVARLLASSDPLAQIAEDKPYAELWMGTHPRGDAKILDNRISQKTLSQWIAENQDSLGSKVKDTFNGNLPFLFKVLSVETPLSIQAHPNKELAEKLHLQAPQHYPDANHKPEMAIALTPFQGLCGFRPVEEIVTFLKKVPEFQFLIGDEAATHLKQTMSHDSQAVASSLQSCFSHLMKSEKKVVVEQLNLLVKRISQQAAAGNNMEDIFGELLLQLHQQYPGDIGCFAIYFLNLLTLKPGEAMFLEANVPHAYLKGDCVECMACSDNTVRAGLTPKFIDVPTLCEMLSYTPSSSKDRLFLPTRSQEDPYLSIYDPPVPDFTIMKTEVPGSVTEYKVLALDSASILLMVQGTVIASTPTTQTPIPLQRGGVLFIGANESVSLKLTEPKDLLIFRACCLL

[2] = target: T1, Mannose-6-phosphate isomerase; experiment: MPI enzyme activity inhibition – biochemical, fluorescence intensity, coupled assay, primary screen (AID 1209)
Phosphomannomutase 2 = Phosphomannomutase 2 (Homo sapiens, UniProt O15305); experiment: Counter screen SAR assay for PMM2 inhibitors via a fluorescence intensity assay. [Related pubchem assays (depositor defined):AID1545, AID1574]
Chain of Phosphomannomutase 2 (O15305 whole entry): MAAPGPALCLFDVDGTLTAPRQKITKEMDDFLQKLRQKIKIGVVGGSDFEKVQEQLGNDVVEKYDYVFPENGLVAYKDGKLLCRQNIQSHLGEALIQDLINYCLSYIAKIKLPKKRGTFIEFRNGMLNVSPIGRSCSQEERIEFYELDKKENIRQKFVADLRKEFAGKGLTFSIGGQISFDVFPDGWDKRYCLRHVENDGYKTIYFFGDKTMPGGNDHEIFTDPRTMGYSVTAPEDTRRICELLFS

[3] = target: DNA dC->dU-editing enzyme APOBEC-3A (Homo sapiens, UniProt P31941); experiment: A3A deaminase inhibition for selectivity – biochemical, dose response (AID 504722); assay type: functional
Chain of DNA dC->dU-editing enzyme APOBEC-3A (P31941 whole entry): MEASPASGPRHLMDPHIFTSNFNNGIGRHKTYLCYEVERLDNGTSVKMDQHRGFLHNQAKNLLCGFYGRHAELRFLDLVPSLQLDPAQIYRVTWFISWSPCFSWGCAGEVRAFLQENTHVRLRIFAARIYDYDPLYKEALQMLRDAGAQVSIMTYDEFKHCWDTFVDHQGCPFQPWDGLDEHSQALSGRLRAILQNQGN

[4] = target: DNA dC->dU-editing enzyme APOBEC-3G (Homo sapiens, UniProt Q9HC16); experiment: Dose Response confirmation of small molecule APOBEC3G DNA Deaminase Inhibitors via a fluorescence-based single-stranded DNA deaminase assay. [Related pubchem assays (depositor defined):AID493012, AID493028]; assay type: functional
Chain of DNA dC->dU-editing enzyme APOBEC-3G (Q9HC16 whole entry): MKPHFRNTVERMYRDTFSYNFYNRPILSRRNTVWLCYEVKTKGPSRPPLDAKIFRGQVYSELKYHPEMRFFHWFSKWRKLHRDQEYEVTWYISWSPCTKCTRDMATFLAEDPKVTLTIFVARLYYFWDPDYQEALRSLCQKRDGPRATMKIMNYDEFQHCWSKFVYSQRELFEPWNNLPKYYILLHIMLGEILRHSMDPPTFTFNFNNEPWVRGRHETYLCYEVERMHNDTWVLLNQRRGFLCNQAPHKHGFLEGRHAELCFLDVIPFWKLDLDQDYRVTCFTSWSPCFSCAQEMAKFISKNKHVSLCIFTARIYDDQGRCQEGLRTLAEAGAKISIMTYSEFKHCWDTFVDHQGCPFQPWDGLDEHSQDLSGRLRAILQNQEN

[5] = fluconazole-exposed Candida albicans growth modulators – fluorescence, retest, confirmation (AID 2467); assay type: functional, cell-based
[6] = target: ATP-dependent molecular chaperone HSP82 (Candida albicans (strain WO-1) (Yeast), UniProt C4YTQ8); experiment: steroid-induced GRE reporter decrease in yeast – S. cerevisiae, luminescence, Hsp90 inhibitor project, dose response (AID 2400); assay type: functional, cell-based;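 also: beta-galactosidase luminescence from glucocorticoid response element reporter as proxy for Hsp90 function; inhibitor potency where signal loss means Hsp90 inhibition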
Chain of ATP-dependent molecular chaperone HSP82 (C4YTQ8 whole entry): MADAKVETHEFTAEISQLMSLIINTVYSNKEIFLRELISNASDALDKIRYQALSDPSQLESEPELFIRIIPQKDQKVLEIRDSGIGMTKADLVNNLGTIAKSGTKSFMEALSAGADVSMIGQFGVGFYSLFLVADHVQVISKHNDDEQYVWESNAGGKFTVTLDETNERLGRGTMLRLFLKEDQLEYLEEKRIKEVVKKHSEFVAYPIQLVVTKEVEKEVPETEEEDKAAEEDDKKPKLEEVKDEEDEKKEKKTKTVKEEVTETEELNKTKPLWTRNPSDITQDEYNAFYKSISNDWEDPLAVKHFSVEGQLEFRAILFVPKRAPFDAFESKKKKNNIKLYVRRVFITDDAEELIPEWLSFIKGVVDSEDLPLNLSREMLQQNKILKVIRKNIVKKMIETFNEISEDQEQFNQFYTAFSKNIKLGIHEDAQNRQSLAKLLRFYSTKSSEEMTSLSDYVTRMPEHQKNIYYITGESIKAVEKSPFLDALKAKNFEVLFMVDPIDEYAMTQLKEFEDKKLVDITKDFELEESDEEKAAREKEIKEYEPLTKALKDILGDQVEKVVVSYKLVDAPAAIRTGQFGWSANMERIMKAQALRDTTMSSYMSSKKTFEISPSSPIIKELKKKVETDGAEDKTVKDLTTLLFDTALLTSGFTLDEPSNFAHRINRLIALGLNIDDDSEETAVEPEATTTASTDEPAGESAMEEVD

Exodeoxyribonuclease V = Exodeoxyribonuclease V (Escherichia coli (strain K12), UniProt P04993+P07648+P08394); experiment: RecBCD inhibition via phage-restricted bacterial growth – absorbance, V66 E. coli, mutant T4 phage, counter-screen for AddAB inhibitor project, dose response (AID 492957); assay type: functional, cell-based, Escherichia coli str. K-12 substr. MG1655
[7] = NIH-3T3 fibroblast cytotoxicity, dose response, cytotoxicity control, cell-based, fluorescence, Alamar Blue, secondary assay (AID 2327); assay type: functional;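 also: NIH-3T3 mouse fibroblasts cultured with fluconazole at 8 µg/mL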
[8] = target: T2, High affinity choline transporter 1 (Homo sapiens, UniProt Q9GZV3); experiment: human choline transporter blockers, potency – cell-based, 5-point CRC, membrane potential dye, dose response (AID 504840); assay type: functional
T2 sequence (Q9GZV3 whole entry): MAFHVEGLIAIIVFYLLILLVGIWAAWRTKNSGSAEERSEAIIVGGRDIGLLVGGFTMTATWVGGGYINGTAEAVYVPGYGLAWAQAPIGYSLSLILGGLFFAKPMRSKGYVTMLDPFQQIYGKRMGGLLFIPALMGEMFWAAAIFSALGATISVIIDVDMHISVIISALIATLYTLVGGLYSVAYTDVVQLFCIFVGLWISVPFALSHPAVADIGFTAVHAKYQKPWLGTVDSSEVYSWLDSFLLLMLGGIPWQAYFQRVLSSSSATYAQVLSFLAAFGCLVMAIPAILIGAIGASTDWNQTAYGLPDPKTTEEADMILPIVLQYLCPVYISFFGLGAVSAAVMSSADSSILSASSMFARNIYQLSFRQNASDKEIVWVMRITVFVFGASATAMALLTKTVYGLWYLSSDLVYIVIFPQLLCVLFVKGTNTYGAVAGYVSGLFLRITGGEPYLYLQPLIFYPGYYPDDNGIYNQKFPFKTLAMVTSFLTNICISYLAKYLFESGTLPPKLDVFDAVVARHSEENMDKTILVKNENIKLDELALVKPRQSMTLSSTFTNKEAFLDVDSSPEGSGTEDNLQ

[9] = mammalian cell viability loss – Alamar Blue, dry powder, cytotoxicity control for antifungal single agent project, dose response (AID 602188); assay type: functional, cell-based
[10] = test system: Streptococcus sp. 'group A'; experiment: Streptococcus pyogenes SK(-)GAS viability under kanamycin – luminescence, BacTiterGlo, confirmation, counter-screen for streptokinase expression inhibitor project, dose response (AID 1900); assay type: functional, organism-based
Streptococcus = experiment: GAS UMAA2166 growth inhibition – luminescence, BacTiterGlo, counter-screen for streptokinase expression inhibitor project, dose response (AID 1915); assay type: functional, organism-based;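 also: potency for reduction of bacterial viability or growth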
[11] = target: T3, Serine/threonine-protein phosphatase (Candida dubliniensis (strain CD36 / CBS 7987 / NCPF 3949 / NRRLY-17841) (Yeast), UniProt B9W6M3); experiment: blockers of CaCl2-induced CDRE-lacZ signaling – S. cerevisiae, luminescence, secondary, dose response (AID 2388); assay type: functional, cell-based;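 also: yeast reporter cells carrying a calcineurin-responsive lacZ construct stimulated with calcium chloride; luminescent beta-galactosidase reporter signal in whole cells rather than isolated phosphatase activity; potency for inhibition where a drop in reporter signal means calcineurin blockade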
T3 sequence (B9W6M3 whole entry): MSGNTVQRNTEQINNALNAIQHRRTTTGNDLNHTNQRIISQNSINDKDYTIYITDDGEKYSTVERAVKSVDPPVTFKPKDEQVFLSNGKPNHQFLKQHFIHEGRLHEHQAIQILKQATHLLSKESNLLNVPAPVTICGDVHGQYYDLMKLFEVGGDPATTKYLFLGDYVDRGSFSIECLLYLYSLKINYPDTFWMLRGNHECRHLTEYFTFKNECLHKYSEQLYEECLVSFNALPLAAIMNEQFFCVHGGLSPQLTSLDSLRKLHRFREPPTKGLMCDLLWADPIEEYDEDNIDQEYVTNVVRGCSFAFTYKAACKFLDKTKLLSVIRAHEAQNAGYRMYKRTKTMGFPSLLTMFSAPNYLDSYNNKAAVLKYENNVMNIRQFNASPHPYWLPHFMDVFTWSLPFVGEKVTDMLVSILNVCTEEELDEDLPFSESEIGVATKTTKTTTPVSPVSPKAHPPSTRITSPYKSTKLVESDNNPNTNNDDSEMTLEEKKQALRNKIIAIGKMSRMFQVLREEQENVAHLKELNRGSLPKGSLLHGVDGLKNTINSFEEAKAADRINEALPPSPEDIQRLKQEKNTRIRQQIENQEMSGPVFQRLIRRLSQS

[12] = Counterscreen for AddAB inhibitors: absorbance-based bacterial cell-based high throughput dose response assay for inhibitors of bacterial viability. [Related pubchem assays (depositor defined):AID435030, AID449728, AID449731, AID488942, AID488955, AID488956]; assay type: functional
Trypsin = Trypsin (Sus scrofa, UniProt P00761); experiment: trypsin protease activity blockade – biochemical, quenched peptide fluorescence, cherry-pick, selectivity assay for Rce1 protease inhibitor project, dose response (AID 488789)
Chain of Trypsin (P00761 whole entry): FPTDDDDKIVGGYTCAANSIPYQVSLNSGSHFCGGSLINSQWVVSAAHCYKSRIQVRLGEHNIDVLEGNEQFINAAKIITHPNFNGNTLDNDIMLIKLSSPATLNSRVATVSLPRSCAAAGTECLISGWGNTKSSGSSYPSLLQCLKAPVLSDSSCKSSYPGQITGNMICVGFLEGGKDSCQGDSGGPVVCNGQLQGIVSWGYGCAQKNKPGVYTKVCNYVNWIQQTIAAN

[13] = viability of uninfected HEp-2 cells – cell-based, HTS, cytotoxicity control for RSV inhibitor project, dose response (AID 2410); assay type: functional; settings: human respiratory syncytial virus
CAAX prenyl protease 2 = CAAX prenyl protease 2 (Homo sapiens, UniProt Q9Y256); experiment: inhibition of Ras-converting CAAX protease Rce1 – biochemical, yeast membranes, quenched-peptide fluorescence, cherry-pick, dose response (AID 588849)
Chain of CAAX prenyl protease 2 (Q9Y256 whole entry): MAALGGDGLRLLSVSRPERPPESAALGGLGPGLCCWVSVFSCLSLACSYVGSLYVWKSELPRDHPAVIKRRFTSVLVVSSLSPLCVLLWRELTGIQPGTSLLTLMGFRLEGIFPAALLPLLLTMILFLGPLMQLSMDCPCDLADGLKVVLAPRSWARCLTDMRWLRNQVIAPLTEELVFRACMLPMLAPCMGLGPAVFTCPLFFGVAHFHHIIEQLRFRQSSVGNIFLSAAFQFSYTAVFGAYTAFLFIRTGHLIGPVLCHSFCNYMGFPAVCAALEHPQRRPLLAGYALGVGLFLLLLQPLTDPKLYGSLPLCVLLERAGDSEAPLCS

[14] = Luminescence Cell-Based Dose Retest to Confirm Inhibitors of Cancer Stem Cells. [Related pubchem assays (depositor defined):AID2717, AID2721]; assay type: functional; settings: Homo sapiens
Jurkat = experiment: SAR Analysis of small molecule inhibitors of T-cell specific antigen receptor-induced NF-kB activation in a Jurkat cell line using a luminescence assay - Set 2. [Related pubchem assays (depositor defined):AID435003, AID435012, AID465]; assay type: functional, cell-based; settings: Homo sapiens
HEK293 [15] = experiment: SAR Analysis of small molecule inhibitors of T-cell specific antigen receptor-induced NF-kB activation in a HEK-293T cell line using a luminescence assay - Set 2. [Related pubchem assays (depositor defined):AID435003, AID435012, AID489026]; assay type: functional, cell-based; settings: Homo sapiens
HEK293 [16] = experiment: HEK293T cell viability loss, resazurin readout – resazurin fluorescence, cytotoxicity control for NF-kB activator project, SAR follow-up (AID 493251); assay type: functional, cell-based; settings: Homo sapiens

Chain of Phospholipase A2 (P04054 whole entry): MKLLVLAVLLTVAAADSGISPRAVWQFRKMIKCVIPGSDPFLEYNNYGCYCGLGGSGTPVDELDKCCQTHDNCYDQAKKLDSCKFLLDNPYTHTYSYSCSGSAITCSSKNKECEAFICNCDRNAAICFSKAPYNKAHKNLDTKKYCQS

O=C(NCc1cccc(C(F)(F)F)c1)C1CC(c2c(Cl)cccc2Cl)=NO1 (stereo not given)
inactive: IC50 (Phospholipase A2) 46.4 µM | IC50 (Cysteine protease ATG4B) > 80 µM

S=c1[nH]nc(C2COc3ccccc3O2)[nH]1 (stereo not given)
inactive: IC50 (Phosphomannomutase 2) > 100 µM | IC50 [3] > 100 µM
active: IC50 [1] 3.89 µM | IC50 [2] 7.29 µM | IC50 [4] 4.34 µM

Cc1ccc(-c2nc3c(Cl)cc(Cl)cc3c(=O)n2O)cc1
active: EC50 [5] 0.891 µM | EC50 [6] 3.24 µM | IC50 [8] 15.1 µM | AC50 [9] 16.2 µM | EC50 [10] 2.19 µM | EC50 (Streptococcus) 2.15 µM
inconclusive: EC50 [7] 31 µM
inactive: IC50 (Exodeoxyribonuclease V) > 119 µM | EC50 [11] > 180 µM | IC50 [12] > 119 µM

Cc1cccc(-c2oc3ccccc3c2C#CCCO)c1
active: AC50 (Trypsin) 3.96 µM | CC50 [13] 19.5 µM | AC50 (CAAX prenyl protease 2) 32 µM | IC50 (cells) 24.2 µM | AC50 [14] 7.86 µM

O=C(Nc1cccc2ncccc12)c1ccc([N+](=O)[O-])o1
inactive: IC50 (Jurkat) 21.8 µM | IC50 (HEK293 [15]) 23.4 µM | IC50 (HEK293 [16]) 69.4 µM
